Results reported in patent US20090149455A1, “Use of Triazolopyrimidines for Controlling Plant Diseases on Legumes” (Bayer CropScience AG, priority 2005, published 2009).

Assay: log p
Assay type: physicochemical

log p	SMILES
2.94	Cc1cc(C)n(-c2c(-c3ccc(F)cc3Cl)c(Cl)nc3ncnn23)n1 [Example 269]
2.58	Fc1cccc(Cl)c1-c1c(Cl)nc2ncnn2c1N1CCCC=N1 [Example 244]
4.23	CC1=CCCN(c2c(-c3c(F)cc(C(F)(F)F)cc3Cl)c(Cl)nc3ncnn23)C1 [Example 183]
3.51	Clc1ccc(-c2c(Cl)nc3ncnn3c2N2CCCCO2)c(Cl)c1 [Example 245]
3.61	Fc1c(F)c(F)c(-c2c(Cl)nc3ncnn3c2N2CCCCC2)c(F)c1F [Example 198]
2.39	Fc1ccc(-c2c(Cl)nc3ncnn3c2N2CCCN2)c(Cl)c1 [Example 261]
2.8	Fc1ccc(-c2c(Cl)nc3ncnn3c2N2CCSCC2)c(F)c1 [Example 196]
2.4	Fc1cc(F)c(-c2c(Cl)nc3ncnn3c2N2CCCO2)c(F)c1 [Example 203]
3.12	CC1C=CCN(c2c(-c3c(F)cc(F)cc3F)c(Cl)nc3ncnn23)O1 (stereo not shown) [Example 246]
3.71	CC1CCN(c2c(-c3ccccc3Cl)c(Cl)nc3ncnn23)CC1 [Example 256]
3.22	CC1CCN(c2c(-c3ccc(F)cc3Cl)c(Cl)nc3ncnn23)NC1 (stereo not shown) [Example 265]
4.18	Fc1cc(C(F)(F)F)cc(Cl)c1-c1c(Cl)nc2ncnn2c1N1CCC(C(F)(F)F)CC1 [Example 178]
4.03	Fc1cc(C(F)(F)F)cc(Cl)c1-c1c(Cl)nc2ncnn2c1N1CCCCC1 [Example 177]
3.14	CC1C=NN(c2c(-c3c(F)cc(F)cc3F)c(Cl)nc3ncnn23)CC1C (stereo not shown) [Example 276]
2.87	CC1CCCN1c1c(-c2ccccc2)c(Cl)nc2ncnn12 (stereo not shown) [Example 258]
2.85	CC1C=NN(c2c(-c3c(F)cc(F)cc3F)c(Cl)nc3ncnn23)CC1 (stereo not shown) [Example 273]
2.5	Clc1nc2ncnn2c(N2CCCC2)c1-c1ccccc1 [Example 250]
3.2	Fc1ccc(-c2c(Cl)nc3ncnn3c2N2CCCC2C(F)(F)F)c(F)c1 (stereo not shown) [Example 210]
3.8	CC1CCN(c2c(-c3ccccc3C(F)(F)F)c(Cl)nc3ncnn23)CC1 [Example 279]
2.78	Fc1cccc(Cl)c1-c1c(Cl)nc2ncnn2c1N1CC=CCO1 [Example 243]
2.78	Clc1ccc(-c2c(Cl)nc3ncnn3c2N2CCOCC2)c(Cl)c1 [Example 254]
3.43	CC1CNN(c2c(-c3ccc(F)cc3Cl)c(Cl)nc3ncnn23)CC1C (stereo not shown) [Example 266]
2.32	Fc1cc(F)c(-c2c(Cl)nc3ncnn3c2N2CCCN2)c(F)c1 [Example 262]
3.85	Fc1cc(C(F)(F)F)cc(Cl)c1-c1c(Cl)nc2ncnn2c1N1CC=CCC1 [Example 179]
3.15	CC1C=NN(c2c(-c3c(F)cccc3Cl)c(Cl)nc3ncnn23)CC1C (stereo not shown) [Example 275]
3.9	CC1CC(C)CN(c2c(-c3ccc(F)cc3F)c(Cl)nc3ncnn23)C1 (stereo not shown) [Example 187]
3.26	Clc1ccccc1-c1c(Cl)nc2ncnn2c1N1CCCCC1 [Example 257]
1.43	CN1CCN(c2c(-c3c(F)c(F)c(F)c(F)c3F)c(Cl)nc3ncnn23)CC1 [Example 197]
2.29	Fc1cccc(Cl)c1-c1c(Cl)nc2ncnn2c1N1CCCN1 [Example 260]

The next lines start with the molecule.

SMILES	log p
CC(C)Nc1c(-c2ccc(F)cc2F)c(Cl)nc2ncnn12 [Example 145]	2.56
CC(Nc1c(-c2ccccc2Cl)c(Cl)nc2ncnn12)C(F)(F)F (stereo not shown) [Example 57]	2.88
CC(Nc1c(-c2c(F)cc(F)cc2F)c(Cl)nc2ncnn12)C(C)(C)C (stereo not shown) [Example 2]	3.54
C=CCN(CC)c1c(-c2ccc(F)cc2F)c(Cl)nc2ncnn12 [Example 15]	3.19
Fc1cc(F)c(-c2c(Cl)nc3ncnn3c2N2CCCCC2)c(F)c1 [Example 173]	3.53
C=C(C)CN(CC)c1c(-c2c(F)cccc2F)c(Cl)nc2ncnn12 [Example 95]	3.42
C=C(C)CN(CC)c1c(-c2c(F)cc(F)cc2F)c(Cl)nc2ncnn12 [Example 90]	3.6
C=C(C)CN(CC)c1c(-c2ccccc2Cl)c(Cl)nc2ncnn12 [Example 105]	3.69
C=C(C)CN(CC)c1c(-c2cc(C(F)(F)F)ccc2Cl)c(Cl)nc2ncnn12 [Example 100]	4.12
CC(C)Nc1c(-c2ccccc2Cl)c(Cl)nc2ncnn12 [Example 131]	2.65
CN(C)c1c(-c2c(F)cccc2F)c(Cl)nc2ncnn12 [Example 87]	2.19
CCNc1c(-c2c(F)cc(C(F)(F)F)cc2Cl)c(Cl)nc2ncnn12 [Example 21]	3.1
CN(C)c1c(-c2ccccc2F)c(Cl)nc2ncnn12 [Example 85]	2.18
C[C@H](Nc1c(-c2cc(C(F)(F)F)ccc2Cl)c(Cl)nc2ncnn12)C(F)(F)F [Example 40]	3.4
FCCCNc1c(-c2c(F)cc(F)cc2F)c(Cl)nc2ncnn12 [Example 12]	2.3
CC1CCN(c2c(-c3c(F)cccc3Cl)c(Cl)nc3ncnn23)CC1 [Example 158]	3.68
CC(C)CNc1c(-c2ccccc2Cl)c(Cl)nc2ncnn12 [Example 126]	2.97
C[C@H](Nc1c(-c2ccc(C(F)(F)F)c(F)c2F)c(Cl)nc2ncnn12)C(F)(F)F [Example 42]	3.52
CC(C)Nc1c(-c2ccc(F)cc2Cl)c(Cl)nc2ncnn12 [Example 142]	2.79
CC(C)CC(C)Nc1c(-c2c(F)cc(F)cc2F)c(Cl)nc2ncnn12 (stereo not shown) [Example 80]	3.59

SMILES	log p
C=CCN(CC)c1c(-c2c(F)cc(C(F)(F)F)cc2Cl)c(Cl)nc2ncnn12 [Example 13]	4.06
CCNc1c(-c2c(F)cccc2F)c(Cl)nc2ncnn12 [Example 24]	2.14
C[C@@H](Nc1c(-c2cc(F)ccc2F)c(Cl)nc2ncnn12)C(C)(C)C [Example 72]	3.38
CC(C)(C)Nc1c(-c2c(F)cc(C(F)(F)F)cc2Cl)c(Cl)nc2ncnn12 [Example 153]	3.9
C[C@H](Nc1c(-c2cc(F)ccc2F)c(Cl)nc2ncnn12)C(F)(F)F [Example 62]	2.74
CNc1c(-c2c(F)cc(F)cc2F)c(Cl)nc2ncnn12 [Example 83]	2.01
C[C@@H](Nc1c(-c2ccc(F)cc2Cl)c(Cl)nc2ncnn12)C(F)(F)F [Example 61]	3
Fc1cc(C(F)(F)F)cc(Cl)c1-c1c(Cl)nc2ncnn2c1N1CCOCC1 [Example 175]	3.07
C=CCN(C)c1c(-c2ccc(F)cc2F)c(Cl)nc2ncnn12 [Example 14]	2.89
C[C@H](Nc1c(-c2ccc(F)cc2C(F)(F)F)c(Cl)nc2ncnn12)C(F)(F)F [Example 59]	3.07
C[C@H](Nc1c(-c2c(F)cc(F)cc2C(F)(F)F)c(Cl)nc2ncnn12)C(F)(F)F [Example 54]	3.16
C=C(C)CNc1c(-c2c(F)cc(F)cc2F)c(Cl)nc2ncnn12 [Example 94]	2.63
C[C@H](Nc1c(-c2cc(C(F)(F)F)ccc2C(F)(F)F)c(Cl)nc2ncnn12)C(F)(F)F [Example 39]	3.51
CNc1c(-c2c(F)c(F)c(F)c(F)c2F)c(Cl)nc2ncnn12 [Example 84]	2.41
C[C@H](Nc1c(-c2cccc(C(F)(F)F)c2Cl)c(Cl)nc2ncnn12)C(F)(F)F [Example 51]	3.36
CCNc1c(-c2c(F)c(F)c(F)c(F)c2F)c(Cl)nc2ncnn12 [Example 25]	2.72
C=C(C)CNc1c(-c2ccc(F)cc2F)c(Cl)nc2ncnn12 [Example 97]	2.6
CC(C)Nc1c(-c2c(F)c(F)c(F)c(F)c2F)c(Cl)nc2ncnn12 [Example 144]	3.05
C[C@H](Nc1c(-c2c(Cl)cccc2Cl)c(Cl)nc2ncnn12)C(F)(F)F [Example 53]	3.02
CC(Nc1c(-c2c(F)c(F)c(F)c(F)c2F)c(Cl)nc2ncnn12)C(F)(F)F (stereo not shown) [Example 48]	3.3

SMILES	log p
CC(C)(C)CNc1c(-c2ccccc2)c(Cl)nc2ncnn12 [Example 109]	3.17
CCC(C)Nc1c(-c2ccccc2Cl)c(Cl)nc2ncnn12 (stereo not shown) [Example 9]	2.94
C=C(C)CN(CC)c1c(-c2cccc3c2OC(F)(F)O3)c(Cl)nc2ncnn12 [Example 101]	3.9
CCC(C)Nc1c(-c2ccccc2F)c(Cl)nc2ncnn12 (stereo not shown) [Example 4]	2.73
C=C(C)CN(CC)c1c(-c2ccccc2)c(Cl)nc2ncnn12 [Example 106]	3.44
CC(Nc1c(-c2c(F)cccc2F)c(Cl)nc2ncnn12)C(F)(F)F (stereo not shown) [Example 47]	2.64
CCCNc1c(-c2c(F)c(F)c(F)c(F)c2F)c(Cl)nc2ncnn12 [Example 152]	3.05
CC(Nc1c(-c2c(F)cc(F)cc2F)c(Br)nc2ncnn12)C(F)(F)F (stereo not shown) [Example 66]	2.9
C[C@H](Nc1c(-c2c(F)cc(C(F)(F)F)c(F)c2F)c(Cl)nc2ncnn12)C(F)(F)F [Example 41]	3.6
C[C@@H](Nc1c(-c2c(F)cccc2Cl)c(Cl)nc2ncnn12)C(C)(C)C [Example 70]	3.58
C[C@H](Nc1c(-c2c(Cl)cc(OC(F)(F)F)cc2Cl)c(Cl)nc2ncnn12)C(F)(F)F [Example 37]	3.89
CCN(CC)c1c(-c2c(F)c(F)c(F)c(F)c2F)c(Cl)nc2ncnn12 [Example 22]	3.44
CC(Nc1c(-c2c(F)cc(F)cc2F)c(Cl)nc2ncnn12)C(F)(F)F (stereo not shown) [Example 1]	2.87
CNc1c(-c2c(F)cccc2F)c(Cl)nc2ncnn12 [Example 82]	1.84
CC(C)[C@@H](C)Nc1c(-c2cc(F)ccc2F)c(Cl)nc2ncnn12 [Example 78]	3.05
Cc1cc(C)c(-c2c(Cl)nc3ncnn3c2NC(C)C(F)(F)F)c(C)c1 (stereo not shown) [Example 35]	3.55
C[C@H](Nc1c(-c2c(F)cc(F)cc2F)c(Cl)nc2ncnn12)C(C)(C)C [Example 68]	3.54
CC(C)(C)CC(C)(C)Nc1c(-c2c(F)cc(F)cc2F)c(Cl)nc2ncnn12 [Example 10]	4.32
C=C(C)CN(CC)c1c(-c2c(Cl)cccc2Cl)c(Cl)nc2ncnn12 [Example 99]	3.92
